According to patent publication US10017767B2, “Targets in multiple myeloma and other disorders” (FONDAZIONE CENTRO SAN RAFFAELE, priority 2012, dated 2018):

Assays:
YAP1 = YAP1 levels in MM cells after treatment; format: cell-based
Description: MM cells were harvested and lysed using lysis buffer: 50 mMTris-HCl (pH 7.4), 150 mM NaCl, 1% NP-40, 5 mM EDTA, 5 mM NaF, 2 mM Na3VO4, 1 mM PMSF, 5 μg/mL leupeptine, and 5 μg/mL aprotinin. Nuclear extracts were prepared using Nuclear Extraction Kit (Panomics). Cell lysates were subjected to sodium dodecyl sulfate-polyacrylamide gel electrophoresis SDS-PAGE, transferred to nitrocellulose membranes, and immunoblotted with different antibodies: ATM, phospho-ATM (Ser1981), ATR, phospho-ATR (Ser428), CHK2, phospho-CHK2 (Thr68), CHK1, phospho-CHK1 (Ser296), p21, p53, phospho-p53 (ser127), STK4, LATS1, phospho-LATS1 (Ser909), phospho-ABL1 (Thr735), cleaved caspase 3, cleaved PARP, histone H3, SAPK/JNK, phospho-SAPK/JNK (Thr183/Tyr185), GM130, GAPDH, and α-tubulin (Cell Signaling); STK4, Nuclear Matrix Protein p84 (Abeam), p73 (BD), phospho-H2A.X (Ser139) (Millipore); as well as ABL1, BAX, Puma, Noxa, actin and nucleolin (Santa Cruz Biotechnology).

U266 MM cell line = experiment: Apoptosis by Annexin V-FITC/PI staining, U266; format: cell-based; conditions: 10 μM, untreated 10%
Description: (§1) In particular, cells were washed twice with room-temperature PBS, resuspended in 100 μL of Annexin binding buffer, and stained with specific antibodies for 20 minutes.

[1] = MTT viability assay, U266; format: cell-based; conditions: human, U266 multiple myeloma cells, 10 μM
Description: Viability of MM cells was evaluated by 3-[4,5-dimethylthiazol-2-yl]-2,5-diphenyltetrazolium bromide (MTT) colorimetric survival assay. MM cells (20,000-50,000) were plated in 100 μL medium. At the various time points (24-96 hours), 10 μL 5 mg/mL MTT were added to plated cells. After 4 hour incubation at 37° C., medium was discarded and 100 μL MTT stop solution (Isopropanonol with […] Hcl) used to dissolve MTT metabolic products. Absorbance was read at 570 nm and background was subtracted at 630 nm, using spectrophotometer SPECTRAMAX M2 machine and Softmax Pro v5 software. Cellular growth was estimated by cell counting in triplicates, excluding dead cells stained by trypan blue.

[2] = test system: leukemia and lymphoma cell lines; experiment: MTT growth inhibition and Annexin V-PI apoptosis in a leukemia and lymphoma cell line panel; format: cell-based; conditions: cell lines where the DNA damage-ABL1-YAP1 axis was activated
RL = experiment: MTT / Annexin V-PI, RL; format: cell-based; conditions: no nuclear ABL1
MM.1S cells = experiment: Apoptosis by Annexin V-FITC/PI staining, MM.1S; format: cell-based, human; conditions: 10 μM, untreated 11%
Description: as §1

HL-60 = experiment: MTT / Annexin V-PI, HL-60; format: cell-based; conditions: HL-60, YAP1 basal expression
[3] = test system: ALL (Jurkat) and AML (OCI/AML3) cell lines; experiment: YAP1 levels, cell number and apoptosis in ALL and AML cell lines; format: cell-based
[4] = test system: KMS-20 cell line, with YAP1 deletion; experiment: Cell growth in YAP1-deleted KMS-20; format: cell-based; conditions: KMS-20, YAP1 deleted
STK4 = target: T1, STK4 (Homo sapiens, UniProt Q13043); experiment: STK4 biochemical kinase inhibition
T1 sequence (Q13043 1-487): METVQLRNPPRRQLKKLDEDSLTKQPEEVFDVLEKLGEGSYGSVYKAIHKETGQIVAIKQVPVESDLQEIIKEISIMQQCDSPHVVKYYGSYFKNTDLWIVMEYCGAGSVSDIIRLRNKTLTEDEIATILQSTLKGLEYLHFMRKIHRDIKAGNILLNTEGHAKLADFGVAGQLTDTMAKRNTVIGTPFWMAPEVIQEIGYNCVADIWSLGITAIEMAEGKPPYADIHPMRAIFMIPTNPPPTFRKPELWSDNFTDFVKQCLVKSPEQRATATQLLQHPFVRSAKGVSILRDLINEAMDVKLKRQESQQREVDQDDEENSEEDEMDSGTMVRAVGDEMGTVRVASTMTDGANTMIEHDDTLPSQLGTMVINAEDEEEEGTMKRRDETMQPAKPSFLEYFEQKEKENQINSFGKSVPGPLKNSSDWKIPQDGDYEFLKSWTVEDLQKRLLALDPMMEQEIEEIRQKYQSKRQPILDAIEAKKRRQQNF

MM cell lines = experiment: Cell growth in a large panel of MM cell lines; format: cell-based

Row | SMILES | YAP1 expression after treatment (YAP1; MM.1S and U266, 10 μM) | apoptosis (Annexin V-PI) (U266 MM cell line) | viability at 24 h, 10 µM ([1]; 24 h, read-out: 24 hour viability (MTT, normalized to DMSO)) | viability at 48 h, 10 µM ([1]; 48 h, read-out: 48 hour viability (MTT, normalized to DMSO)) | viability at 72 h, 10 µM ([1]; 72 h, read-out: 72 hour viability (MTT, normalized to DMSO)) | viability at 96 h, 10 µM ([1]; 96 h, read-out: 96 hour viability (MTT, normalized to DMSO)) | cellular proliferation and survival [2] | response to treatment (RL) | apoptosis (Annexin V-FITC/PI) (MM.1S cells) | response to treatment (HL-60) | YAP1 levels, cell number and apoptosis [3] | YAP1 levels after treatment (YAP1; MM cells) | activity against KMS-20 [4] | IC50 (STK4) | effect on cell growth / proliferation in MM cell lines (MM cell lines)
1 | COc1cc(Nc2c(C#N)cnc3cc(OCCCN4CCN(C)CC4)c(OC)cc23)c(Cl)cc1Cl [SKI-606] | significant increase of YAP1 expression | 58% | 93.8% | 76.1% | 53.8% | 28.5% | profoundly reduced | did not respond to the treatment | 76% | did not respond to the treatment | – | – | – | – | –
2 | NS(=O)(=O)c1ccc(N/N=C2\C(=O)Nc3ccc4ncccc4c32)cc1 [GW305178X] | – | – | – | – | – | – | – | – | – | – | increased YAP1 levels, reduced cell number, and enhanced apoptosis | robust increase in YAP1 levels | not active | 12 nM | reduced proliferation in most cell lines with low YAP1 levels
